According to PubChem BioAssay (NCI):
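Dose response: 5 concentrations. Exposure: 48 h. Format: 96-well plates. Endpoint: linear interpolation; highest concentration if not reached. Here, GI50 denotes the concentration required for 50% inhibition of growth. TGI: total growth inhibition.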

Legend:
Test in all cases: inhibition of tumour cell growth, NCI panel, 48 h
SK-OV-3 ovarian = tested on: SK-OV-3 ovarian
SF-539 CNS = tested on: SF-539 CNS
NCI-H226 lung = tested on: NCI-H226 lung
SW-620 colon = tested on: SW-620 colon
786-0 renal = tested on: 786-0 renal
SNB-19 CNS = tested on: SNB-19 CNS
HT29 colon = tested on: HT29 colon
NCI-H522 lung = tested on: NCI-H522 lung
RPMI-8226 leukemia = tested on: RPMI-8226 leukemia
PC-3 prostate = tested on: PC-3 prostate

Compound	TGI (SK-OV-3 ovarian)	TGI (SF-539 CNS)	TGI (NCI-H226 lung)	TGI (SW-620 colon)	TGI (786-0 renal)	TGI (SNB-19 CNS)	TGI (HT29 colon)	TGI (NCI-H522 lung)	TGI (RPMI-8226 leukemia)	GI50 (SK-OV-3 ovarian)	GI50 (SF-539 CNS)	GI50 (NCI-H226 lung)	GI50 (SW-620 colon)	GI50 (786-0 renal)	GI50 (SNB-19 CNS)	GI50 (PC-3 prostate)	TGI (PC-3 prostate)	GI50 (NCI-H522 lung)	GI50 (HT29 colon)	GI50 (RPMI-8226 leukemia)
COC(=O)c1cccn1C(=O)n1cccc1	> 100 µM	> 100 µM	> 100 µM	> 100 µM	> 100 µM	> 100 µM	> 100 µM	> 100 µM												
Oc1ccc2ccccc2c1N=Nc1ccsc1	> 100 µM	> 100 µM	> 100 µM	> 100 µM	> 100 µM	> 100 µM	> 100 µM	> 100 µM	> 100 µM											
COC(=O)c1cc(O)c2cc3c(cc2c1-c1cc(OC)c(OC)c(OC)c1)OCO3	> 100 µM	> 100 µM	> 100 µM	> 100 µM	> 100 µM	> 100 µM		1.13 µM		3.02 µM	3.34 µM	5.12 µM	0.496 µM	6.23 µM	3.57 µM	2.01 µM	> 100 µM	0.272 µM		
CCOC(=O)N1CCC(=O)C(CNC23CC4CC(CC(C4)C2)C3)C1 (stereo not drawn)	> 100 µM	> 100 µM	> 100 µM	39.5 µM	29.4 µM	> 100 µM	43.7 µM	34 µM												
Cn1c2c(c3ccc([N+](=O)[O-])cc3c1=O)C(=O)c1ccccc1-2	> 100 µM	> 100 µM	> 100 µM	> 100 µM	> 100 µM	> 100 µM	> 100 µM	> 100 µM		> 100 µM	> 100 µM	> 100 µM	> 100 µM	> 100 µM	> 100 µM	> 100 µM	> 100 µM	> 100 µM	> 100 µM	
CC(=O)OC(C)(C)/C(C)=C/C(=O)O[C@H]1C(=O)O[C@@H]2C[C@H]3[C@H](C)C(=O)C(O[C@@H]4O[C@H](CO)[C@@H](O)[C@H](O)[C@H]4O)=C[C@]3(C)[C@H]3[C@@H](O)[C@H](O)[C@@]4(C(=O)O)OC[C@]32[C@@H]14	> 100 µM	> 100 µM	> 100 µM	> 100 µM	> 100 µM	> 100 µM	> 100 µM	49.5 µM		> 100 µM	55.9 µM	72.8 µM	> 100 µM	> 100 µM	> 100 µM	> 100 µM	> 100 µM	18.7 µM	> 100 µM	
O=c1ncc(F)cn1C1OC(CO)C(O)C1O (stereo not drawn)	> 100 µM	> 88 µM	> 100 µM	> 100 µM	> 100 µM	> 69 µM	> 73.3 µM	> 70.2 µM	> 100 µM											
COc1cc(C2SCC(=O)N2c2ncc(C)s2)cc(OC)c1OC (stereo not drawn)		43.9 µM	> 50 µM	> 50 µM	> 50 µM	> 50 µM	> 50 µM	> 50 µM	> 50 µM		13.5 µM	> 50 µM	21.4 µM	> 50 µM	34.5 µM	31.4 µM	> 50 µM	> 50 µM	23.3 µM	17.2 µM
O=C(CCN1CCN(c2ccccc2)CC1)N1CCc2c([nH]c3ccccc23)C1c1cccnc1 (stereo not drawn)	33.7 µM	35.4 µM	71.9 µM	32.7 µM	29.5 µM	66.7 µM	29 µM	30 µM												
O=C1C=CC(=Nc2cc(Br)c(O)c(Br)c2)C=C1	> 100 µM	64.1 µM	59.6 µM	> 100 µM	60.6 µM	> 100 µM	35 µM	28.8 µM	> 100 µM	52.8 µM	21.5 µM	22.2 µM	15.8 µM	23.6 µM	44.2 µM			3.96 µM	18 µM	11.9 µM
CC(C)(C)c1cc(-n2c(-c3ccc(Cl)cc3)nc3cc(C(=O)Nc4ccc(Cl)cc4)ccc32)n[nH]1	66.4 µM	> 100 µM	> 100 µM		> 100 µM	> 100 µM	> 100 µM	94.8 µM		21.6 µM	28 µM	10.4 µM		6.18 µM	4.1 µM	3.29 µM	> 100 µM	3.9 µM	> 100 µM	
COC(=O)C(C(=O)C(=O)Nc1ccc([N+](=O)[O-])cc1[N+](=O)[O-])c1nc2ccc(Cl)cc2[nH]c1=O (stereo not drawn)	> 100 µM	> 100 µM	> 100 µM	> 100 µM	> 100 µM	> 100 µM	> 100 µM		> 100 µM											
O=c1[nH]c(=S)[nH]c2c1CN(CCCN1CCOCC1)CN2		58.2 µM	> 100 µM	> 100 µM	> 100 µM	> 100 µM	> 100 µM	52.3 µM	75.6 µM								57.1 µM			
CCN(CC)c1ccc(C(O)C2=CC(=O)c3ccccc3C2=O)cc1 (stereo not drawn)	6.82 µM	4.18 µM	4.63 µM	> 100 µM	2.65 µM			4.19 µM		2.66 µM	2 µM	1.93 µM	0.802 µM	1.36 µM		0.156 µM	0.959 µM	1.79 µM		
CC1CCCC(C(O)CC2CC(=O)NC(=O)C2)C1O (stereo not drawn)	> 100 µM	> 100 µM	> 100 µM	> 100 µM	> 100 µM	> 100 µM	> 100 µM		> 100 µM								> 100 µM			
NC(=O)/N=C1/CCC2C3CCCC2C13	> 100 µM	> 100 µM	> 100 µM	> 100 µM	> 100 µM	> 100 µM	> 100 µM	> 100 µM	> 100 µM											
CCC[CH2][Sn]1([CH2]CCC)[O]CC(CN(C)Cc2ccccc2)[O]1 (stereo not drawn)	33.2 µM	20.6 µM	35.8 µM	11.1 µM	16.4 µM	25.2 µM	34.3 µM	4.61 µM	7.79 µM	15.6 µM	7.2 µM	17.2 µM	2.77 µM	4.41 µM	12.6 µM			1.94 µM	15.2 µM	2.75 µM
